According to ChEMBL document CHEMBL3091289, “Design of fluorinated 5-HT(4)R antagonists: influence of the basicity and lipophilicity toward the 5-HT(4)R binding affinities” (Bioorg Med Chem, 2013):

Columns and labels:
[1] = molecular target: 5-hydroxytryptamine receptor 4 (Cavia porcellus, UniProt O70528); assay: Displacement of [3H]GR113808 from 5HT4R in guinea pig striatal membranes; format: cell membranes, Striatum, Membrane
[2] = molecular target: 5-hydroxytryptamine receptor 4 (Cavia porcellus) (UniProt O70528); assay: Displacement of [3H]GR113808 from 5HT4R in guinea pig striatal membranes at 10^-8 M; format: cell membranes; conditions: Striatum, Membrane
[3] = molecular target: 5-hydroxytryptamine receptor 4 (Cavia porcellus) (UniProt O70528); assay: Displacement of [3H]GR113808 from 5HT4R in guinea pig striatal membranes at 10^-6 M; format: cell membranes; conditions: Striatum, Membrane
[4] = molecular target: T1, 5-hydroxytryptamine receptor 1A (Homo sapiens, UniProt P08908); assay: Binding affinity to human 5HT1A
T1 sequence (P08908 whole entry): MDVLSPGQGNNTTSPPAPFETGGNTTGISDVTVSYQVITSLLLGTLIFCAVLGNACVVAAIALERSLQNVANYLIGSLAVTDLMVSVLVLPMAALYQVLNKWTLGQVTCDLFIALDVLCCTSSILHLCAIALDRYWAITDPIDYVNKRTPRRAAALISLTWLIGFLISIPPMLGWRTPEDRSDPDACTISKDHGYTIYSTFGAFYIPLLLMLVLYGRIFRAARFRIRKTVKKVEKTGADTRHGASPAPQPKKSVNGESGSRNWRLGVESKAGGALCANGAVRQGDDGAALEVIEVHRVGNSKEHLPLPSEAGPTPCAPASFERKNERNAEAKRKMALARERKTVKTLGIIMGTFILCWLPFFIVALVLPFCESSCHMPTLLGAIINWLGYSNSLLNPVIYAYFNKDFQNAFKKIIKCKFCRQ

[5] = molecular target: 5-hydroxytryptamine receptor 7 (Homo sapiens, UniProt P34969); assay: Binding affinity to human 5HT7
[6] = molecular target: 5-hydroxytryptamine receptor 6 (Homo sapiens, UniProt P50406); assay: Binding affinity to human 5HT6
[7] = molecular target: 5-hydroxytryptamine receptor 1B (Homo sapiens, UniProt P28222); assay: Binding affinity to human 5HT1B
[8] = molecular target: 5-hydroxytryptamine receptor 5A (Homo sapiens, UniProt P47898); assay: Binding affinity to human 5HT5A
[9] = molecular target: T2, 5-hydroxytryptamine receptor 4 (Homo sapiens, UniProt Q13639); assay: Binding affinity to human 5HT4R
[10] = molecular target: 5-hydroxytryptamine receptor 2A (Homo sapiens, UniProt P28223); assay: Binding affinity to human 5HT2A
[11] = molecular target: 5-hydroxytryptamine receptor 2B (Homo sapiens, UniProt P41595); assay: Binding affinity to human 5HT2B
[12] = molecular target: T2, 5-hydroxytryptamine receptor 4; assay: Intrinsic activity at human 5HT4R
[13] = molecular target: T3, 5-hydroxytryptamine receptor 3A (Homo sapiens, UniProt P46098); assay: Binding affinity to human 5HT3
T3 sequence (P46098 whole entry): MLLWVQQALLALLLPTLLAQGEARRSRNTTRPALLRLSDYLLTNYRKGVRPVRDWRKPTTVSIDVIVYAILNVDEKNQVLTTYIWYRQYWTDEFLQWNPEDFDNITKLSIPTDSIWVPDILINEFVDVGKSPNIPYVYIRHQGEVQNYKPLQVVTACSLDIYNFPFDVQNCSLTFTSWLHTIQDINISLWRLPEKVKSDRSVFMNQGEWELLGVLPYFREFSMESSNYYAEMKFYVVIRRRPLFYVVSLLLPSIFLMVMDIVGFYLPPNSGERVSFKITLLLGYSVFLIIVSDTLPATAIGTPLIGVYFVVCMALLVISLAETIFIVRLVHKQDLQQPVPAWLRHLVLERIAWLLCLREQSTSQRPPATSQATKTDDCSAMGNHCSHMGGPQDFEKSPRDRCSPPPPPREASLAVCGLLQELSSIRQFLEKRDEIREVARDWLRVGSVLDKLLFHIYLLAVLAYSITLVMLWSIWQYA

[14] = molecular target: T4, 5-hydroxytryptamine receptor 2C (Homo sapiens, UniProt P28335); assay: Binding affinity to human 5HT2C
T4 sequence (P28335 whole entry): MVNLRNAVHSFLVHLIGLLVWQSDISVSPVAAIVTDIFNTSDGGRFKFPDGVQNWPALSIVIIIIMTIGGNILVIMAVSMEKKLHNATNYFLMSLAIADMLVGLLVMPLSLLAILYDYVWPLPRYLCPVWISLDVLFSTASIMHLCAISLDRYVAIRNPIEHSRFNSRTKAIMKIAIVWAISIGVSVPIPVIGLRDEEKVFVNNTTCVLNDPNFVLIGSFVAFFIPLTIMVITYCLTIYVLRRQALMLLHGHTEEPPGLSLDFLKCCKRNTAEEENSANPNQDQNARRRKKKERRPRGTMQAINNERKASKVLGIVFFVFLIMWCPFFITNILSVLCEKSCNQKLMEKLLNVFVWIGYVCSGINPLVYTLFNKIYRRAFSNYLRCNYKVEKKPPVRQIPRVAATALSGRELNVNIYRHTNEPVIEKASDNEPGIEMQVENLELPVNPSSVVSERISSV

[15] = molecular target: 5-hydroxytryptamine receptor 1D (Homo sapiens, UniProt P28221); assay: Binding affinity to human 5HT1D
5-hydroxytryptamine receptor 1D, sequence (P28221 whole entry): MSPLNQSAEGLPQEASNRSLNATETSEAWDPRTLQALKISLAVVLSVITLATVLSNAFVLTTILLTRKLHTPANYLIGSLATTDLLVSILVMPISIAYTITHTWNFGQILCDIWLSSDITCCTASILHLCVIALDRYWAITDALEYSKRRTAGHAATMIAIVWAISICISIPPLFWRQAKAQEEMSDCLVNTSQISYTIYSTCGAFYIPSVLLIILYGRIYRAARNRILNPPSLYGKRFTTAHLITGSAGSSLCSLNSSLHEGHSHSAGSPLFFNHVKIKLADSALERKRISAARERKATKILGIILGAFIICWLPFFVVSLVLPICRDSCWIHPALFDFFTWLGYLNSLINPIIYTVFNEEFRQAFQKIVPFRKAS

T2 sequence (Q13639 whole entry): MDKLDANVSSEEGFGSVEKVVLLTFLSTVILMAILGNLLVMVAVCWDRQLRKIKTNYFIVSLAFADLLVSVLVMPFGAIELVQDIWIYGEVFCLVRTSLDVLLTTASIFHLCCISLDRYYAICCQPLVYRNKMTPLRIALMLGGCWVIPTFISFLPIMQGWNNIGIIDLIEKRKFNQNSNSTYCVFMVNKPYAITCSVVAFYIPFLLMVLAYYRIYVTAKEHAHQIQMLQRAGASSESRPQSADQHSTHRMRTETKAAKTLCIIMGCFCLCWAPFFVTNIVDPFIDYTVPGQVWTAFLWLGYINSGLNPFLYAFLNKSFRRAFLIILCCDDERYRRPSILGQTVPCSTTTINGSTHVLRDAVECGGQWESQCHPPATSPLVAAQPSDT
5-hydroxytryptamine receptor 4 (Cavia porcellus), sequence (O70528 whole entry): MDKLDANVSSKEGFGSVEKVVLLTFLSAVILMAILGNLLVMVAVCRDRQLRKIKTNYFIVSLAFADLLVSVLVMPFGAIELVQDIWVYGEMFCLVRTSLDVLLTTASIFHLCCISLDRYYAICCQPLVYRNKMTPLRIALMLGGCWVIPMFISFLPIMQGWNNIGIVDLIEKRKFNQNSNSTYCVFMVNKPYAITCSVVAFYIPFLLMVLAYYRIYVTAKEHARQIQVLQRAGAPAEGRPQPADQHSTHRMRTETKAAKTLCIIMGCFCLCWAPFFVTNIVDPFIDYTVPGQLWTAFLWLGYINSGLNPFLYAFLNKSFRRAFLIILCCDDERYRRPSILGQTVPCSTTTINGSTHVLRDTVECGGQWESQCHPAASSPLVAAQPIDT
5-hydroxytryptamine receptor 4 (Cavia porcellus, UniProt O70528), sequence (O70528 whole entry): as above
5-hydroxytryptamine receptor 6, sequence (P50406 whole entry): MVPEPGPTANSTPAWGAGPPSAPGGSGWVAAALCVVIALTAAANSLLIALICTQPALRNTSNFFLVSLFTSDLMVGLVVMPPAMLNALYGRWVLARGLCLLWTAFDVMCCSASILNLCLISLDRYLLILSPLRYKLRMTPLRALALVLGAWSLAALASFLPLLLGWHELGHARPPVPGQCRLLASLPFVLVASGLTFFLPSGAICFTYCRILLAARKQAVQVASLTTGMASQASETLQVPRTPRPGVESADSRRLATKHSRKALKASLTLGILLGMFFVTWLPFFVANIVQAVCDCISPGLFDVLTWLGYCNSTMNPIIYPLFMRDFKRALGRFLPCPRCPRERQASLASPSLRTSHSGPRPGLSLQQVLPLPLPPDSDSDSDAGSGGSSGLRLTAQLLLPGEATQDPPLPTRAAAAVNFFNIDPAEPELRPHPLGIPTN
5-hydroxytryptamine receptor 2A, sequence (P28223 whole entry): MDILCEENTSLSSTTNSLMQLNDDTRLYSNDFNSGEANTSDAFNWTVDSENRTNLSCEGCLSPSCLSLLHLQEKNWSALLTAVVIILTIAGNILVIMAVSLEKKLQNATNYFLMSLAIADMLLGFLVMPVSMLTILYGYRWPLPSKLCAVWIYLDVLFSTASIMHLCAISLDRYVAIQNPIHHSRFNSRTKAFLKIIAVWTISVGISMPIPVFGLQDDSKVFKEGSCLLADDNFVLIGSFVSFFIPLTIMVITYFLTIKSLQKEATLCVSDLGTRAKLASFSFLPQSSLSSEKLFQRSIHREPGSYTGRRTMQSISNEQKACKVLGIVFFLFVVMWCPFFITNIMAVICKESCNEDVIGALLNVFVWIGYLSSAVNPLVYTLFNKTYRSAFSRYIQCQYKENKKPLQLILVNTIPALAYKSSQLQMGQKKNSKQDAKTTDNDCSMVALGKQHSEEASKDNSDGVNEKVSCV
5-hydroxytryptamine receptor 1B, sequence (P28222 whole entry): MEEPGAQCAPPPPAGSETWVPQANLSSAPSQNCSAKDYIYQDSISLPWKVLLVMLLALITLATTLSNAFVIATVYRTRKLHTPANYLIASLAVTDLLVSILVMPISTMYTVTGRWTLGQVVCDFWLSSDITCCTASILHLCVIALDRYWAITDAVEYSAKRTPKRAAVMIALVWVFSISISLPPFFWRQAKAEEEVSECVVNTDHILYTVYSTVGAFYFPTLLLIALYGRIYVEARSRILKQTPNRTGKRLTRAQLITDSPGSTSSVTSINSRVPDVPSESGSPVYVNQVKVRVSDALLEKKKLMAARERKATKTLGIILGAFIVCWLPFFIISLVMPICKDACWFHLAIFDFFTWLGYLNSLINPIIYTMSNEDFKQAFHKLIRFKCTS
5-hydroxytryptamine receptor 2B, sequence (P41595 whole entry): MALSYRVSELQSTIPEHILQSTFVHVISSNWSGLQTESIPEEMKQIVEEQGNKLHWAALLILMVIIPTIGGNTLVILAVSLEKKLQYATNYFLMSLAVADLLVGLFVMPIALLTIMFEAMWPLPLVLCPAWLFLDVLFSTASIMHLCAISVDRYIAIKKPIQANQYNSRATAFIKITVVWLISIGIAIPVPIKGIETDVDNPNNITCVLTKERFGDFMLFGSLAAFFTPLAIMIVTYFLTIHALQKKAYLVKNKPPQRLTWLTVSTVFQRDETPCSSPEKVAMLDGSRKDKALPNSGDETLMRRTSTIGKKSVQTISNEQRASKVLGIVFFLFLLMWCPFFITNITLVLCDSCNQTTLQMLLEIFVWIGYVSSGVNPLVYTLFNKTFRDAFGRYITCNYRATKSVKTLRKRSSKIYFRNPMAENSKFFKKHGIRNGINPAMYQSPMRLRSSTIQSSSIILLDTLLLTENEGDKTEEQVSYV
5-hydroxytryptamine receptor 5A, sequence (P47898 whole entry): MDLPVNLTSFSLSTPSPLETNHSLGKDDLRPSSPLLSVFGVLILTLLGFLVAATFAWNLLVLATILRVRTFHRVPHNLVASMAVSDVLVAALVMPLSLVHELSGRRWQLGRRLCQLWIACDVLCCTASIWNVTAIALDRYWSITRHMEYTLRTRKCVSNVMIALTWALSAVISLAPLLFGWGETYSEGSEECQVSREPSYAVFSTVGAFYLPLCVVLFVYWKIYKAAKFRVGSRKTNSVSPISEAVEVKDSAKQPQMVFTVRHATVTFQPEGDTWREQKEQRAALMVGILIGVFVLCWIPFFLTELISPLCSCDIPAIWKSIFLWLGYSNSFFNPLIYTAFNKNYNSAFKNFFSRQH
5-hydroxytryptamine receptor 7, sequence (P34969 whole entry): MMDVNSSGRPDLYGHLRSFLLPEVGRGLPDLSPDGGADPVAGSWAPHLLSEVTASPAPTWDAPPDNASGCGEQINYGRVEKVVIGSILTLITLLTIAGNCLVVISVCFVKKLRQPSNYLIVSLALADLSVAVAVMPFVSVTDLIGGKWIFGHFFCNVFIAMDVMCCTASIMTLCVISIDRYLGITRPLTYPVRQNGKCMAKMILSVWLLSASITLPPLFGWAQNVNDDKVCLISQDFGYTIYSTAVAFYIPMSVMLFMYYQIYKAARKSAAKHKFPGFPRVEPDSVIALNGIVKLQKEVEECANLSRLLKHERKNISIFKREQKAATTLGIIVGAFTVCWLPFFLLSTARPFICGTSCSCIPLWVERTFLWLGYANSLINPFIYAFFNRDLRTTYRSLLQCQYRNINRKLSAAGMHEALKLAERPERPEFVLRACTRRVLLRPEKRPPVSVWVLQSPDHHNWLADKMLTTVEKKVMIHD

Structure (SMILES) | Ki [1] [nM] | inhibition [2] [%] | inhibition [3] [%] | other results
Fc1cccc2c1nc(OCC1CCN(CC(F)F)CC1)c1cccnc12 | 91.4 | 26 | 100 | 
FC(F)(F)CN1CCC(COc2nc3ccccc3c3ccccc23)CC1 |  | 0 | 1 | 
Fc1cccc2c1nc(OCC1CCN(CCCC(F)(F)F)CC1)c1ccccc12 | 14.1 | 49 | 100 | 
Fc1cccc2c1nc(OCC1CCN(CC(F)F)CC1)c1ccccc12 |  | 0 | 93 | 
Fc1cccc2c1nc(OCC1CCN(CC(F)(F)C(F)(F)F)CC1)c1ccccc12 |  | 0 | 4 | 
FC(F)(F)C(F)(F)CN1CCC(COc2nc3ccccc3c3ccccc23)CC1 |  | 0 | 1 | 
FC(F)CN1CCC(COc2nc3ccccc3c3ccccc23)CC1 |  | 0 | 58 | 
Fc1cccc2c1nc(OCC1CCN(CCCC(F)(F)F)CC1)c1cccnc12 | 4.2 | 80 | 100 | Ki [4]: > 10000 nM; Ki [5]: > 10000 nM; Ki [6]: > 10000 nM; Ki [7]: > 10000 nM; Ki [8]: > 10000 nM; Ki [9]: 0.2 nM; Ki [10]: 8700 nM; Ki [11]: 190 nM; Kb [12]: 0.199 nM; Ki [13]: 2600 nM; Ki [14]: 980 nM; Ki [15]: > 10000 nM
Fc1cccc2c1nc(OCC1CCN(CCC(F)(F)F)CC1)c1cccnc12 | 9 | 80 | 100 | Ki [4]: > 10000 nM; Ki [5]: > 10000 nM; Ki [6]: > 10000 nM; Ki [7]: > 10000 nM; Ki [8]: > 10000 nM; Ki [9]: 0.11 nM; Ki [10]: > 10000 nM; Ki [11]: 230 nM; Kb [12]: 0.079 nM; Ki [13]: 1200 nM; Ki [14]: > 10000 nM; Ki [15]: > 10000 nM
Fc1cccc2c1nc(OCC1CCN(CCC(F)(F)F)CC1)c1ccccc12 | 22 | 61 | 100 | 
CCCN1CCC(COc2nc3c(F)cccc3c3ncccc23)CC1 |  | 94 |  | 
Fc1cccc2c1nc(OCC1CCN(CC(F)(F)F)CC1)c1ccccc12 |  | 0 | 3 | 
